Experimental data as given in patent publication US20240067693A1, “POLYPEPTIDES AND USES THEREOF” (MEDIMMUNE LIMITED, priority 2020, published 2024).
Numbered stars: 1 amine (or outer) side, 2 acyl side, 3 side chain; on linkers, the order of the positions; unused ones are H or OH. Bridge positions count the residues as written; N and C are the ends. Square brackets hold non-standard residues; d marks the D form. Side chains are listed from the residue outwards. Peptide text beside a SMILES is read from it. * marks the point of attachment. C18 diacid = O=C(O)CCCCCCCCCCCCCCCCC(=O)*; γGlu = O=C(O)[C@H](CCC(=O)[*:2])N[*:1]; Aib = CC(C)(N)C(=O)O

Tests used:
[1] = target: T1, human amylin receptor (calcitonin receptor co-expressed with receptor activity modifying protein, RAMP3) (hAMYR3) (Homo sapiens, UniProt O60896+P30988); assay: cAMP production in 1321N1 cells with stable recombinant expression of human amylin receptor (hAMYR3); type: cell-based; settings: for Ratio (selectivity hAMYR vs hCTR, ratio of EC50 values at the two receptors): EC50 hCTR / EC50 hAMYR3; for EC50: cAMP, 1321N1 cells, assay buffer with 0.1% BSA, read-out: EC50 (pM) hAMYR3
T1 construct: expressed in transfected cells
T1 sequence (P30988 25-474): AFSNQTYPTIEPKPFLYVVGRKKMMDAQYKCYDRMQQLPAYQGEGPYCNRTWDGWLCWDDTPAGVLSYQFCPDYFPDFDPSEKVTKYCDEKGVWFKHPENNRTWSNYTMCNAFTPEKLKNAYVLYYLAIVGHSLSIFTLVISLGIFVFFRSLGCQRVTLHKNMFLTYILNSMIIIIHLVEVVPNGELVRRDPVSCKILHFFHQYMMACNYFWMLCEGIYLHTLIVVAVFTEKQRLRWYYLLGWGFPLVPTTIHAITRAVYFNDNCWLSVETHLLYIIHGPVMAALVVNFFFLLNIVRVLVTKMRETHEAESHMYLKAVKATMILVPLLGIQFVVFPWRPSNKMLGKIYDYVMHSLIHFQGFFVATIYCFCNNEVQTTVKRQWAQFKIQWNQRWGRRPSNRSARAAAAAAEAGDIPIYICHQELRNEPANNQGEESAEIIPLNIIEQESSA
T1 sequence (O60896 24-148 partner): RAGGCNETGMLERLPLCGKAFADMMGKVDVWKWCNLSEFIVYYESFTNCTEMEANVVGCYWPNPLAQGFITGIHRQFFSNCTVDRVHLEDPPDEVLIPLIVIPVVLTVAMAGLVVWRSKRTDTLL
How it was run: (§1)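 Thawed cells in HBSS/0.1% BSA/25 mM HEPES pH 7.4 with 0.5 mM IBMX were incubated with peptides 30 min at room temperature; cAMP read by HTRF. EC50 from 4-parameter fit of % activation relative to maximal amylin or calcitonin effect.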

[2] = target: T2, human calcitonin receptor (hCTR) (Homo sapiens, UniProt P30988); assay: cAMP production in 1321N1 cells with stable recombinant expression of human calcitonin receptor (hCTR); type: cell-based; settings: cAMP, 1321N1 cells, assay buffer with 0.1% BSA; read-out: EC50 (pM) hCTR
T2 construct: expressed in transfected cells
T2 sequence (P30988 25-474): T1 sequence (P30988 25-474)
How it was run: as §1

Row | Ratio (selectivity hAMYR vs hCTR, ratio of EC50 values at the two receptors) [1] | EC50 [1] [pM] | EC50 [2] [pM] | Structure (SMILES)
1 | 1 | 942 | 972 | CC[C@H](C)[C@H](NC(=O)[C@@H]1CCCN1C(=O)CNC(=O)[C@H](Cc1ccccc1)NC(=O)[C@H](CC(N)=O)NC(=O)[C@H](CC(N)=O)NC(=O)[C@H](CO)NC(=O)[C@H](CO)NC(=O)[C@H](Cc1c[nH]cn1)NC(=O)C(C)(C)NC(=O)[C@H](CC(C)C)NC(=O)[C@H](Cc1ccccc1)NC(=O)[C@H](CC(N)=O)NC(=O)[C@H](C)NC(=O)[C@H](CC(C)C)NC(=O)[C@H](CCCNC(=N)N)NC(=O)[C@H](CCC(N)=O)NC(=O)[C@@H](NC(=O)[C@H](C)NC(=O)[C@@H]1CSSC[C@H](NC(=O)[C@H](CCCCN)NC(=O)[C@@H](N)CCCCNC(=O)CC[C@H](NC(=O)CCCCCCCCCCCCCCCCC(=O)O)C(=O)O)C(=O)N[C@@H](CC(N)=O)C(=O)N[C@@H]([C@@H](C)O)C(=O)N[C@@H](C)C(=O)N[C@@H]([C@@H](C)O)C(=O)N1)[C@@H](C)O)C(=O)N[C@@H](CC(C)C)C(=O)N1CCC[C@H]1C(=O)N1CCC[C@H]1C(=O)N[C@H](C(=O)NC(C)(C)C(=O)N[C@H](C(=O)NCC(=O)N[C@@H](CO)C(=O)N[C@@H](CC(N)=O)C(=O)N[C@H](C(=O)N[C@@H](Cc1ccc(O)cc1)C(N)=O)[C@@H](C)O)C(C)C)[C@@H](C)O [Peptide 98, K(γE-C18diacid)K[CNTATC]ATQRLANFL(Aib)HSSNNFGPILPPT(Aib)VGSNTY-amide] (H-K([γGlu-C18 diacid])KCNTATCATQRLANFL[Aib]HSSNNFGPILPPT[Aib]VGSNTY-NH2; disulfide 3-8; N-terminus assumed)
2 | 0.5 | 3800 | 1820 | CC[C@H](C)[C@H](NC(=O)[C@@H]1CCCN1C(=O)CNC(=O)[C@H](Cc1ccccc1)NC(=O)[C@H](CC(N)=O)NC(=O)[C@H](CC(N)=O)NC(=O)[C@H](CO)NC(=O)[C@H](CO)NC(=O)[C@H](Cc1c[nH]cn1)NC(=O)C(C)(C)NC(=O)[C@H](CC(C)C)NC(=O)[C@H](Cc1ccccc1)NC(=O)[C@H](CC(N)=O)NC(=O)[C@H](C)NC(=O)[C@H](CC(C)C)NC(=O)[C@H](CCCNC(=N)N)NC(=O)[C@H](CCC(N)=O)NC(=O)[C@@H](NC(=O)[C@H](C)NC(=O)[C@@H]1CSSC[C@H](NC(=O)[C@H](CCCCN)NC(=O)[C@@H](N)CCCCNC(=O)CC[C@H](NC(=O)CCCCCCCCCCCCCCCCC(=O)O)C(=O)O)C(=O)N[C@@H](CC(N)=O)C(=O)N[C@@H]([C@@H](C)O)C(=O)N[C@@H](C)C(=O)N[C@@H]([C@@H](C)O)C(=O)N1)[C@@H](C)O)C(=O)N[C@@H](CC(C)C)C(=O)N1CCC[C@H]1C(=O)N1CCC[C@H]1C(=O)N[C@H](C(=O)N[C@@H](CC(N)=O)C(=O)NC(C)(C)C(=O)NCC(=O)N[C@@H](CO)C(=O)N[C@@H](CC(N)=O)C(=O)N[C@H](C(=O)N[C@@H](Cc1ccc(O)cc1)C(N)=O)[C@@H](C)O)[C@@H](C)O [Peptide 99, K(γE-C18diacid)K[CNTATC]ATQRLANFL(Aib)HSSNNFGPILPPTN(Aib)GSNTY-amide] (H-K([γGlu-C18 diacid])KCNTATCATQRLANFL[Aib]HSSNNFGPILPPTN[Aib]GSNTY-NH2; disulfide 3-8; N-terminus assumed)
3 | 1 | 364 | 459 | CC[C@H](C)[C@H](NC(=O)[C@@H]1CCCN1C(=O)CNC(=O)[C@H](Cc1ccccc1)NC(=O)[C@H](CC(N)=O)NC(=O)[C@H](CC(N)=O)NC(=O)[C@H](CO)NC(=O)[C@H](CO)NC(=O)[C@H](Cc1c[nH]cn1)NC(=O)C(C)(C)NC(=O)[C@H](CC(C)C)NC(=O)[C@H](Cc1ccccc1)NC(=O)[C@H](CC(N)=O)NC(=O)[C@H](C)NC(=O)[C@H](CC(C)C)NC(=O)[C@H](CCCNC(=N)N)NC(=O)[C@H](CCC(N)=O)NC(=O)[C@@H](NC(=O)[C@H](C)NC(=O)[C@@H]1CSSC[C@H](NC(=O)[C@H](CCCCN)NC(=O)[C@@H](N)CCCCNC(=O)CC[C@H](NC(=O)CCCCCCCCCCCCCCCCC(=O)O)C(=O)O)C(=O)N[C@@H](CC(N)=O)C(=O)N[C@@H]([C@@H](C)O)C(=O)N[C@@H](C)C(=O)N[C@@H]([C@@H](C)O)C(=O)N1)[C@@H](C)O)C(=O)N[C@@H](CC(C)C)C(=O)N1CCC[C@H]1C(=O)N1CCC[C@H]1C(=O)N[C@H](C(=O)N[C@@H](CC(N)=O)C(=O)N[C@H](C(=O)NC(C)(C)C(=O)N[C@@H](CO)C(=O)N[C@@H](CC(N)=O)C(=O)N[C@H](C(=O)N[C@@H](Cc1ccc(O)cc1)C(N)=O)[C@@H](C)O)C(C)C)[C@@H](C)O [Peptide 100, K(γE-C18diacid)K[CNTATC]ATQRLANFL(Aib)HSSNNFGPILPPTNV(Aib)SNTY-amide] (H-K([γGlu-C18 diacid])KCNTATCATQRLANFL[Aib]HSSNNFGPILPPTNV[Aib]SNTY-NH2; disulfide 3-8; N-terminus assumed)
4 | 2 | 177 | 441 | CC[C@H](C)[C@H](NC(=O)[C@@H]1CCCN1C(=O)CNC(=O)[C@H](Cc1ccccc1)NC(=O)[C@H](CC(N)=O)NC(=O)[C@H](CC(N)=O)NC(=O)[C@H](CO)NC(=O)[C@H](CO)NC(=O)[C@H](Cc1c[nH]cn1)NC(=O)C(C)(C)NC(=O)[C@H](CC(C)C)NC(=O)[C@H](Cc1ccccc1)NC(=O)[C@H](CC(N)=O)NC(=O)[C@H](C)NC(=O)[C@H](CC(C)C)NC(=O)[C@H](CCCNC(=N)N)NC(=O)[C@H](CCC(N)=O)NC(=O)[C@@H](NC(=O)[C@H](C)NC(=O)[C@@H]1CSSC[C@H](NC(=O)[C@H](CCCCN)NC(=O)[C@@H](N)CCCCNC(=O)CC[C@H](NC(=O)CCCCCCCCCCCCCCCCC(=O)O)C(=O)O)C(=O)N[C@@H](CC(N)=O)C(=O)N[C@@H]([C@@H](C)O)C(=O)N[C@@H](C)C(=O)N[C@@H]([C@@H](C)O)C(=O)N1)[C@@H](C)O)C(=O)N[C@@H](CC(C)C)C(=O)N1CCC[C@H]1C(=O)N1CCC[C@H]1C(=O)N[C@H](C(=O)N[C@@H](CC(N)=O)C(=O)N[C@H](C(=O)NCC(=O)NC(C)(C)C(=O)N[C@@H](CC(N)=O)C(=O)N[C@H](C(=O)N[C@@H](Cc1ccc(O)cc1)C(N)=O)[C@@H](C)O)C(C)C)[C@@H](C)O [Peptide 101, K(γE-C18diacid)K[CNTATC]ATQRLANFL(Aib)HSSNNFGPILPPTNVG(Aib)NTY-amide] (H-K([γGlu-C18 diacid])KCNTATCATQRLANFL[Aib]HSSNNFGPILPPTNVG[Aib]NTY-NH2; disulfide 3-8; N-terminus assumed)
5 | 3 | 479 | 1630 | CC[C@H](C)[C@H](NC(=O)[C@@H]1CCCN1C(=O)CNC(=O)[C@H](Cc1ccccc1)NC(=O)[C@H](CC(N)=O)NC(=O)[C@H](CC(N)=O)NC(=O)[C@H](CO)NC(=O)[C@H](CO)NC(=O)[C@H](Cc1c[nH]cn1)NC(=O)C(C)(C)NC(=O)[C@H](CC(C)C)NC(=O)[C@H](Cc1ccccc1)NC(=O)[C@H](CC(N)=O)NC(=O)[C@H](C)NC(=O)[C@H](CC(C)C)NC(=O)[C@H](CCCNC(=N)N)NC(=O)[C@H](CCC(N)=O)NC(=O)[C@@H](NC(=O)[C@H](C)NC(=O)[C@@H]1CSSC[C@H](NC(=O)[C@H](CCCCN)NC(=O)[C@@H](N)CCCCNC(=O)CC[C@H](NC(=O)CCCCCCCCCCCCCCCCC(=O)O)C(=O)O)C(=O)N[C@@H](CC(N)=O)C(=O)N[C@@H]([C@@H](C)O)C(=O)N[C@@H](C)C(=O)N[C@@H]([C@@H](C)O)C(=O)N1)[C@@H](C)O)C(=O)N[C@@H](CC(C)C)C(=O)N1CCC[C@H]1C(=O)N1CCC[C@H]1C(=O)N[C@H](C(=O)N[C@@H](CC(N)=O)C(=O)N[C@H](C(=O)NCC(=O)N[C@@H](CO)C(=O)NC(C)(C)C(=O)N[C@H](C(=O)N[C@@H](Cc1ccc(O)cc1)C(N)=O)[C@@H](C)O)C(C)C)[C@@H](C)O [Peptide 102, K(γE-C18diacid)K[CNTATC]ATQRLANFL(Aib)HSSNNFGPILPPTNVGS(Aib)TY-amide] (H-K([γGlu-C18 diacid])KCNTATCATQRLANFL[Aib]HSSNNFGPILPPTNVGS[Aib]TY-NH2; disulfide 3-8)
